Assay results from PMC8197855, “Peptide/β-Peptoid Hybrids with Activity against Vancomycin-Resistant Enterococci: Influence of Hydrophobicity and Structural Features on Antibacterial and Hemolytic Properties” (International Journal of Molecular Sciences, 2021).
≈ marks a conversion by molar mass, not a printed value. Where “and” joins values, the source holds several entries; their conditions need not be identical. Identical values can stand only once.

Legend:
[1] = tested on: E. faecium ATCC 19434; test: Broth checkerboard assay with conventional antibiotics; format: cell-based, Enterococcus faecium; details: antibiotic alone (-); BHI broth
Description: (§1) The strain culture preparation and final volume were the same as in the MIC assay. […] The plates were incubated for 24 h at 37 °C without shaking. […] All experiments were performed in two biological replicates.
(§2) To evaluate the effect of the combinations, the fractional inhibitory concentration index (FICI) was calculated for each combination according to:ΣFIC = FICA + FICB = (CA/MICA) + (CB/MICB)
(§3) The drug interaction was scored as follows: synergy—FICI ≤ 0.5; no interaction—FICI > 0.5–4; antagonism—FICI > 4 [40].

[2] = tested on: E. faecalis ATCC 29212; test: as above; format: cell-based, Enterococcus faecalis; details: antibiotic alone (-); BHI broth
Description: as §1, §2, §3

[3] = tested on: E. faecalis ATCC 29212; test: microbe, parasite or virus in culture; format: cell-based, Enterococcus faecalis; details: ATCC 29212, 24 h
Description: (§4) Overnight cultures of the enterococcal isolates were diluted in physiological saline (0.9% NaCl) to reach a turbidity of 0.5 McFarland units (Sensititre® nephelometer and the Sensititre® McFarland Standard). Bacterial suspensions were adjusted to 5 × 10^5 CFU/mL in MHB II or BHI broth containing two-fold dilutions of peptidomimetics or conventional antibiotics in a final volume of 100 µL. The plates were incubated for 24 h at 37 °C without shaking. […] All experiments were performed in three biological replicates. […]

[4] = tested on: E. faecium D344R; test: microbe, parasite or virus in culture; format: cell-based, Enterococcus faecium; details: E. faecium D344R, human clinical isolate; 24 h
Description: (§5) Overnight cultures of the enterococcal isolates were diluted in physiological saline (0.9% NaCl) to reach a turbidity of 0.5 McFarland units (Sensititre® nephelometer and the Sensititre® McFarland Standard). Bacterial suspensions were adjusted to 5 × 10^5 CFU/mL in MHB II or BHI broth containing two-fold dilutions of peptidomimetics or conventional antibiotics in a final volume of 100 µL. The plates were incubated for 24 h at 37 °C without shaking. […] All experiments were performed in three biological replicates.

[5] = tested on: E. faecium 2961; test: microbe, parasite or virus in culture; format: cell-based, Enterococcus faecium; details: 2961, 24 h
Description: as §5

[6] = tested on: E. faecium 1798; test: microbe, parasite or virus in culture; format: cell-based, Enterococcus faecium; details: 1798, 24 h
Description: as §5

[7] = tested on: E. faecium 3978; test: microbe, parasite or virus in culture; format: cell-based, Enterococcus faecium; details: 3978, 24 h
Description: as §5

[8] = tested on: E. faecium isolates; format: cell-based, Enterococcus faecium; details: 24 h
Description: as §5

[9] = tested on: HepG2 cell line ATCC HB-8065; test: Effect on HepG2 cell viability (MTT assay); format: cell-based, human; details: 48 h
Description: The effect of peptidomimetics on mammalian cell viability was determined on the HepG2 cell line ATCC HB-8065. In brief, HepG2 cells were seeded into flat-bottom 96-well plates at a concentration of 5000 cells per well. The cells were incubated for 24 h in a humidified incubator (5% CO2, 37 °C). Subsequently, the medium was removed, and the cells were incubated for 48 h in a humidified incubator (5% CO2, 37 °C) with peptidomimetics in serial dilutions. An MTT assay was then performed; in brief, after incubation with the test compounds, the culture medium was removed and fresh medium with 0.2 mg/mL MTT was then added into each well. After incubation (3 h, 37 °C, 5% CO2), the medium with MTT was removed, and 200 μL dimethyl sulfoxide was added at once to each sample. The absorbance of MTT was measured using the spectrophotometer TECAN Infinite M1000 at 540 nm. The relative viability was calculated by using the formula:ODtreated cells × 100/ODcontrol cells
The IC50 values were calculated using the program Graph Pad Prism 5.0. For all compounds, the test range was 10–1280 μg/mL.

[10] = tested on: E. faecium ATCC 19434; test: microbe, parasite or virus in culture; format: cell-based, Enterococcus faecium; details: ATCC 19434, 24 h
Description: as §4

[11] = Hemolytic activity; format: cell-based, human; details: 37 °C, 1% red blood cell suspension; for hemolysis at 60 min, 400 µg/mL: human, human red blood cells (washed, 1% suspension)
Description: A suspension of hRBCs (Single-donor human red blood cells—washed; catalogue No. IPLA-W3 from Innovative researchTM) was washed three times with PBS buffer and centrifuged for 5 min at 2500 rpm. A two-fold serial dilution of compounds in PBS buffer was prepared. Plates (conical-bottomed 96-well plates) with 3 replicate wells per dilution, containing 1% red blood cell suspension, were prepared and dosed with the test compound to achieve a final concentration of 400 μg/mL in a total volume of 100 μL. The plates were incubated (37 °C) for 60 min with mild agitation, and then the cells were pelleted by centrifugation at 1500 rpm for 5 min. Then, the supernatants (50 μL) were transferred to a fresh 96-well plate, and then the concentration of hemoglobin was detected by measuring the OD at 405 nm. The OD of cells incubated with 1% SDS achieved 100% hemolysis, while the OD of cells incubated with PBS buffer achieved 0% hemolysis. The concentration tested was 400 μg/mL (only average values are stated in Table 3). The percent hemolysis was calculated by using the formula:Hemolysis(%) = 100 × [(Asample − Aneg.control)/(Apos. control − Aneg.control)]

[12] = Hydrophobicity by analytical RP-HPLC (% MeCN at peak elution); format: physicochemical
Description: Water was filtered by using an Evoqua LaboStar PRO TWF Ultra Pure Water System prior to use in high-performance liquid chromatography (HPLC). The retention time for each peptidomimetic was determined by analytical HPLC using a Phenomenex Luna C18(2) HST column (100 mm × 3 mm; particle size: 2.5 μm; pore size: 100 Å) on a Shimadzu Prominence and Shimadzu Nexera system using an aqueous MeCN gradient with 0.1% trifluoroacetic acid (TFA) added (eluent A: 5:95 MeCN–H2O + 0.1% TFA; eluent B: 95:5 MeCN–H2O + 0.1% TFA); a flow rate of 0.5 mL/min was used. For the elution of peptidomimetics, a linear gradient of 0% to 60% B over 10 min was used with UV detection at λ = 220 nm. The percentage MeCN at peak elution was calculated from the retention time (tR) by using the following formula:%MeCN = [0.95 × 0.6 × tR/10 + 0.05 × (1 − 0.6 × tR/10)] × 100%

[13] = tested on: E. faecalis 39002; test: microbe, parasite or virus in culture; format: cell-based, Enterococcus faecalis; details: 39002, 24 h
Description: as §5

[14] = tested on: E. faecalis 38262; test: microbe, parasite or virus in culture; format: cell-based, Enterococcus faecalis
Description: as §5

MIC of antibiotic [1] [µg/mL]	MIC of antibiotic [2] [µg/mL]	SMILES	Minimum inhibitory concentration [3] [µg/mL]	Minimum inhibitory concentration [4] [µg/mL]	Minimum inhibitory concentration [5] [µg/mL]	Minimum inhibitory concentration [6] [µg/mL]	Minimum inhibitory concentration [7] [µg/mL]	MIC (range or typical value) against E. faecium [8] [µg/mL]	HepG2 IC50 [9] [µg/mL]	Minimum inhibitory concentration [10] [µg/mL]	hemolysis at 60 min, 400 µg/mL [11] [%]	Hydrophobicity, Luna C18(2) HST (0–60% B; 10 min), retention converted into % MeCN [12]	Minimum inhibitory concentration [13] [µg/mL]	Minimum inhibitory concentration ([14]; E. faecalis 38262, veterinary isolate, 24 h) [µg/mL]	Minimum inhibitory concentration ([14]; 38262, 24 h) [µg/mL]	hemolysis ([11]; 400 µg/mL, 60 min) [%]
4 to 8	1 to 2	CC[C@H]1OC(=O)[C@H](C)[C@@H](O[C@H]2C[C@@](C)(OC)[C@@H](O)[C@H](C)O2)[C@H](C)[C@@H](O[C@@H]2O[C@H](C)C[C@H](N(C)C)[C@H]2O)[C@](C)(O)C[C@@H](C)CN(C)[C@H](C)[C@@H](O)[C@]1(C)O [Azithromycin, azithromycin]														
		C[C@@H](c1ccccc1)N(CCC(N)=O)C(=O)[C@H](CCCCN)NC(=O)CCN(C(=O)[C@H](CCCCNC(=N)N)NC(=O)CCN(C(=O)[C@H](CCCCN)NC(=O)CCN(C(=O)[C@H](CCCCNC(=N)N)NC(=O)CCN(C(=O)[C@H](CCCCN)NC(=O)CCN(C(=O)[C@H](CCCCNC(=N)N)NC(=O)CNCCCNCCCCNCCCN)[C@@H](C)c1ccccc1)[C@@H](C)c1ccccc1)[C@@H](C)c1ccccc1)[C@@H](C)c1ccccc1)[C@@H](C)c1ccccc1 [Compound 3, SpermineAc-[hArg-βNspe-Lys-βNspe]3-NH2]	>32	4 to 8	8 (≈ 3.63 µM)	4 to 8	8 (≈ 3.63 µM)	4 to 8	41	16 to 32	0.6	40 % MeCN and 40.2 % MeCN				
		NCCCC[C@H](NC(=O)CCN(Cc1ccc(F)cc1)C(=O)[C@H](CCCCN)NC(=O)CCN(Cc1ccc(F)cc1)C(=O)[C@H](CCCCN)NC(=O)CCN(Cc1ccc(F)cc1)C(=O)[C@H](CCCCN)NC(=O)CCN(Cc1ccc(F)cc1)C(=O)[C@H](CCCCN)NC(=O)CCN(Cc1ccc(F)cc1)C(=O)[C@H](CCCCN)NC(=O)CCN(Cc1ccc(F)cc1)C(=O)[C@H](CCCCN)NC(=O)CCN(Cc1ccc(F)cc1)C(=O)[C@@H](N)CCCCN)C(=O)N(CCC(N)=O)Cc1ccc(F)cc1 [Compound 7, H-[Lys-βNPhe(F)]8-NH2]	8 to 16	4 to 8	2 to 4	2 to 4	4 to 8		50	8 to 16	1.5	41.3 % MeCN	8 to 16	> 32		
		NCCCC[C@H](NC(=O)CCN(Cc1cc(F)c(F)c(F)c1)C(=O)[C@H](CCCCN)NC(=O)CCN(Cc1cc(F)c(F)c(F)c1)C(=O)[C@H](CCCCN)NC(=O)CCN(Cc1cc(F)c(F)c(F)c1)C(=O)[C@H](CCCCN)NC(=O)CCN(Cc1cc(F)c(F)c(F)c1)C(=O)[C@H](CCCCN)NC(=O)CCN(Cc1cc(F)c(F)c(F)c1)C(=O)[C@@H](N)CCCCN)C(=O)N(CCC(N)=O)Cc1cc(F)c(F)c(F)c1 [Compound 8, H-[Lys-βNPhe(F3)]6-NH2]	2 to 4	2 (≈ 0.963 µM)	2 (≈ 0.963 µM)	2 to 4	2 (≈ 0.963 µM)		27	2 to 4	> 20		2 (≈ 0.963 µM)		8 to 16	
		NCCCC[C@H](NC(=O)CCN(CC1CCCCC1)C(=O)[C@H](CCCCN)NC(=O)CCN(CC1CCCCC1)C(=O)[C@H](CCCCN)NC(=O)CCN(CC1CCCCC1)C(=O)[C@H](CCCCN)NC(=O)CCN(CC1CCCCC1)C(=O)[C@H](CCCCN)NC(=O)CCN(CC1CCCCC1)C(=O)[C@H](CCCCN)NC(=O)CCN(CC1CCCCC1)C(=O)[C@H](CCCCN)NC(=O)CCN(CC1CCCCC1)C(=O)[C@@H](N)CCCCN)C(=O)N(CCC(N)=O)CC1CCCCC1 [Compound 9, H-[Lys-βNCha]8-NH2]	2 to 4		2 to 4	2 to 4	2 to 4			2 to 4			4 (≈ 1.68 µM)		8 (≈ 3.36 µM)	> 20
		CCCCCCCCCCCC(=O)N[C@@H](CCCCN)C(=O)N(CCC(=O)N[C@@H](CCCCN)C(=O)N(CCC(=O)N[C@@H](CCCCN)C(=O)N(CCC(=O)N[C@@H](CCCCN)C(=O)N(CCC(=O)N[C@@H](CCCCN)C(=O)N(CCC(=O)N[C@@H](CCCCN)C(=O)N(CCC(N)=O)Cc1ccccc1)Cc1ccccc1)Cc1ccccc1)Cc1ccccc1)Cc1ccccc1)Cc1ccccc1 [Compound 11, Lau-[Lys-βNPhe]6-NH2]	4 (≈ 2.07 µM)	2 to 4	2 to 4	2 to 4	2 to 4		22	4 (≈ 2.07 µM)			4 to 8		4 to 8	
64	16	CNC(C)C1CCC(N)C(OC2C(N)CC(N)C(OC3OCC(C)(O)C(NC)C3O)C2O)O1 (centres unmarked) [Gentamicin, gentamicin]														
2	2	CC(=O)NC[C@H]1CN(c2ccc(N3CCOCC3)c(F)c2)C(=O)O1 [Linezolid, linezolid]														
8	1	CO[C@H]1/C=C/O[C@@]2(C)Oc3c(C)c(O)c4c(O)c(c(/C=N/N5CCN(C)CC5)c(O)c4c3C2=O)NC(=O)/C(C)=C\C=C\[C@H](C)[C@H](O)[C@@H](C)[C@@H](O)[C@@H](C)[C@H](OC(C)=O)[C@@H]1C [Rifampicin, rifampicin]														
